One assay relates to GluN1/GluN2A/GluN3A. Description: Whole-cell patch-clamp on HEK-293 cells transiently transfected with GluN1/GluN2A/GluN3A (1:1:2). The format is cell-based. Conditions: 30 μM WZB117; 100 μM glutamate and 100 μM glycine; mixed receptor population. As to the method: Whole-cell patch-clamp recordings were performed at room temperature (22–25°C) using an EPC-10 amplifier and Patch Master Software (HEKA). Pipettes were pulled from borosilicate glass capillaries (World Precision Instruments), and the resistances were 3–5 MΩ when filled with the intracellular solution. The extracellular solution contained (in mM): 140 NaCl, 2.8 KCl, 1 CaCl2, 10 HEPES and 20 sucrose (290–300 mOsm), pH adjusted to 7.3 using NaOH. The pipette solution contained (in mM): 115 CsF, 10 CsCl, 10 HEPES and 10 BAPTA (280–290 mOsm), pH adjusted to 7.2 using CsOH ([Grand et al., 2018]). When recording in hippocampal neurons, the extracellular solution contained (in mM): 140 NaCl, 5 KCl, 1 CaCl2, 1.25 MgCl2, 10 glucose, and 10 HEPES, and the pH was adjusted to 7.4 using NaOH, and the pipette solution contained (in mM): 140 KCl, 1 MgCl2, 10 EGTA, and 10 HEPES, and the pH was adjusted to 7.2 using KOH ([Xie et al., 2020]). Drug-containing solutions were applied through an RSC-200 Rapid Solution Changer with a 9-tube head (BioLogic Co., France), in which the cell is positioned close to the output of a capillary. […]
Supplementary Figure S3 Effects of WZB117 on currents from HEK-293 cells co-expressing GluN1/GluN2A/GluN3A subunits. […] The data of GluN1/GluN2A were analyzed from Figure 3D. […]

Assay [1] concerns the target T1, native GluN1/GluN3 receptors (Rattus norvegicus, UniProt P35439+Q9R1M7).
T1 construct: endogenous in cells; host or cells: acutely isolated hippocampal neurons, Sprague-Dawley rats P7-14
Nature of the assay: Whole-cell patch-clamp, glycine-induced currents after CGP-78608 in acutely isolated hippocampal neurons. The format is cell-based. The note with it: 10 μM WZB117; glycine-induced currents after incubation with CGP-78608. As for the experimental part: (§1) Hippocampal neurons were obtained from Sprague-Dawley rats (aged P7-14). Briefly, the isolated hippocampal tissues were cut into approximately […] slices along the sagittal plane and were digested with 3 mg/ml proteinase (Sigma-Aldrich) at 32°C for 8 min. Then 1 mg/ml bovine serum albumin (Sangon Biotech) and 1 mg/ml trypsin inhibitor (Sigma-Aldrich) were used to stop the digestion. A few slices of the hippocampus were gently blown into single cells with the dissecting solution, then transferred to a dish and left to rest for 20 min before experiments. The dishes were preprocessed. Essentially, the bottom of the dish was covered with discarded cell suspension the day before the experiment and was washed and dried the next day, which prevented the neurons from sticking to the bottom too tightly. The dissecting solution contained (in mM): 82 Na2SO4, 30 K2SO4, 5 MgCl2, 1 Na pyruvate, 10 HEPES, and 20 glucose. The pH was adjusted to 7.2 using NaOH ([Xie et al., 2020]).
(§2) Whole-cell patch-clamp recordings were performed at room temperature (22–25°C) using an EPC-10 amplifier and Patch Master Software (HEKA). Pipettes were pulled from borosilicate glass capillaries (World Precision Instruments), and the resistances were 3–5 MΩ when filled with the intracellular solution. […]

Another assay has as its system AMPA receptors. Description: Whole-cell patch-clamp, AMPA-induced currents in acutely isolated hippocampal neurons. The assay is classed as cell-based, rat. Conditions: 10 μM WZB117. As for the experimental part:
as §1, §2

In the next assay the target is GluN1/GluN3A receptors (UniProt Q05586+Q9R1M7). Nature of the assay: Whole-cell patch-clamp recording on GluN1/GluN3A Flp-in T-REx 293 stable cell lines. The format is cell-based, human GluN1-1a, rat GluN3A. Also on record: expressed in transfected cells. As for the experimental part: To establish GluN1/GluN3A stable cell lines, the human GluN1-1a (GenBank: NP_015566.1) and the rat GluN3A (GenBank: NP_612555.1) genes were subcloned into the pcDNA5-FRT-To and pcDNA3.1 vectors, respectively. An EGFP tag was added to the C-terminus of GluN1 or GluN3A using a T2A linker for identification of transfected cells during transient transfection. Point mutations were introduced by site-directed mutagenesis using PrimeSTAR (Takara). The human GluN2A (GenBank: NP_000824.1) gene was subcloned into the pcDNA3.1 vector. The chimeras GluN3A^670-673 MWPL/LEPF and GluN2A^550-553 LEPF/MWPL were generated using In-Fusion HD Cloning kits (Takara). All constructs were confirmed by DNA sequencing (Beijing Genomics Institute).
The Flp-in T-Rex 293 cell lines (Invitrogen), stably expressing GluN1/GluN3A were grown in DMEM basal medium (Gibco) supplemented with 10% fetal bovine serum (FBS, Invitrogen), 15 μg/ml blasticidin S (Invitrogen), 50 μg/ml hygromycin B (Invitrogen) and 500 μg/ml G418 (Gibco). Expression in cell lines was induced with 1 μg/ml doxycycline (Invitrogen) 24–28 h prior to the experiments. Chinese hamster ovary (CHO) cells were grown in DMEM-F12 basal medium (Gibco) supplemented with 10% FBS. In the study on the action sites of WZB117, all whole-cell patch-clamp recordings were performed on CHO cells. The transfections were carried out using Lipofectamine 3000 transfection reagent (Thermo Fisher) according to the manufacturer’s instructions. All cells mentioned above were cultured in a 5% CO2 incubator at 37°C and passaged every other day at a ratio of 1:3.
Whole-cell patch-clamp recordings were performed at room temperature (22–25°C) using an EPC-10 amplifier and Patch Master Software (HEKA). Pipettes were pulled from borosilicate glass capillaries (World Precision Instruments), and the resistances were 3–5 MΩ when filled with the intracellular solution. The extracellular solution contained (in mM): 140 NaCl, 2.8 KCl, 1 CaCl2, 10 HEPES and 20 sucrose (290–300 mOsm), pH adjusted to 7.3 using NaOH. The pipette solution contained (in mM): 115 CsF, 10 CsCl, 10 HEPES and 10 BAPTA (280–290 mOsm), pH adjusted to 7.2 using CsOH ([Grand et al., 2018]). When recording in hippocampal neurons, the extracellular solution contained (in mM): 140 NaCl, 5 KCl, 1 CaCl2, 1.25 MgCl2, 10 glucose, and 10 HEPES, and the pH was adjusted to 7.4 using NaOH, and the pipette solution contained (in mM): 140 KCl, 1 MgCl2, 10 EGTA, and 10 HEPES, and the pH was adjusted to 7.2 using KOH ([Xie et al., 2020]). Drug-containing solutions were applied through an RSC-200 Rapid Solution Changer with a 9-tube head (BioLogic Co., France), in which the cell is positioned close to the output of a capillary. The solution, containing either one drug or a combination of different drugs, to be assayed flows out of the capillary at a moderate flow rate by gravity. The lifted cell, exposed to this stream, rapidly equilibrates in the perfusion solution. Whole-cell patch-clamp recordings in heterologous cells and hippocampal neurons were performed at a holding potential of −60 mV. Currents were sampled at 10 kHz and low pass filtered at 2.9 kHz. To record the native GluN1/GluN3 receptor-mediated currents, the extracellular solution was supplemented with 10 μM bicuculline (Sigma-Aldrich), 2 μM NBQX (Topscience), 100 μM D-APV (MCE), and 50 μM strychnine (UHN Shanghai) to block γ-aminobutyric acid type A (GABAA), α-amino-3-hydroxy-5-methylisoxazole-4-propionate (AMPA), GluN1/GluN2 NMDA and glycine receptors, respectively. To record the native GluN2-NMDARs-mediated currents, 10 μM bicuculline and 2 μM NBQX were added into the extracellular solution to block GABAA receptors and AMPA receptors, respectively ([Grand et al., 2018]; [Otsu et al., 2019]; [Zhu et al., 2020]).
Patch-clamp data were processed using Clampfit 10.4 (Molecular Device, Sunnyvale, CA, United States) and analyzed with GraphPad Prism 5.0 (GraphPad Software, San Diego, CA, United States). […]

The record followed here is PMC9218946, “Identification of a Subtype-Selective Allosteric Inhibitor of GluN1/GluN3 NMDA Receptors” (Frontiers in Pharmacology, 2022).

GluN1/GluN3A receptors, sequence (Q9R1M7 24-1135, other chains not shown): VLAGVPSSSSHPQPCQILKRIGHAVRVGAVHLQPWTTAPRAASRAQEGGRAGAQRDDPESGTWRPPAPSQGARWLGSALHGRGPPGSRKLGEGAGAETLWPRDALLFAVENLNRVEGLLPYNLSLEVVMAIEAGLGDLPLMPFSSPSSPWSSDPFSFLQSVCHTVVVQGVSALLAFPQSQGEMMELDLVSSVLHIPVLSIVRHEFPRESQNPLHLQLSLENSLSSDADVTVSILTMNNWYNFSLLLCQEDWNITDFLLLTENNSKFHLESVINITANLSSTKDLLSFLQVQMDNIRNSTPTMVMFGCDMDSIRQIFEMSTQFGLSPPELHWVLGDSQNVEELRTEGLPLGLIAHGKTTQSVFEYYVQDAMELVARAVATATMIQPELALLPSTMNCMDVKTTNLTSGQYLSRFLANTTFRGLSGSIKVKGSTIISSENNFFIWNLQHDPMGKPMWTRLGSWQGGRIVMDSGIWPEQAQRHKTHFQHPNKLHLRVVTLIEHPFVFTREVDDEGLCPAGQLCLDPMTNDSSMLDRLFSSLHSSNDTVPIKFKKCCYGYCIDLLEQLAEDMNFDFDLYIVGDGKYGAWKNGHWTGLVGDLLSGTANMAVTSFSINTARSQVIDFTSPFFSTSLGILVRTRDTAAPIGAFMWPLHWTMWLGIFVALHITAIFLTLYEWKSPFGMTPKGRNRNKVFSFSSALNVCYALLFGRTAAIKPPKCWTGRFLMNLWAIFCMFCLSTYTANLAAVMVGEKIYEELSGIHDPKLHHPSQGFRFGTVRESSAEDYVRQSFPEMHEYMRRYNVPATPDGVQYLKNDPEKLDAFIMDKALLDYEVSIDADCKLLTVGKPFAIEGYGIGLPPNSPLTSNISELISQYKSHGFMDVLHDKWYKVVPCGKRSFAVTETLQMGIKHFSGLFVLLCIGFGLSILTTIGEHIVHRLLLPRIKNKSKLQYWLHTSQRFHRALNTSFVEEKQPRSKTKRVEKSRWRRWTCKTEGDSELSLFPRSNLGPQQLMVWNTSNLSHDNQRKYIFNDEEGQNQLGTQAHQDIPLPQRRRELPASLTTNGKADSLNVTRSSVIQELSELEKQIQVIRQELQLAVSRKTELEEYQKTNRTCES
T1 sequence (Q9R1M7 24-1135, other chains not shown): as above

As to `O=C(Oc1cccc(F)c1OC(=O)c1cccc(O)c1)c1cccc(O)c1` [WZB117, 3-fluoro-1,2-phenylene bis(3-hydroxybenzoate)], the “I drug/I cotrol” value in the assay with GluN1/GluN2A/GluN3A turned out to be 0.22 ± 0.04. Besides, the “I drug/I control” value in assay [1] is recorded as 0.18 ± 0.03. Also, the “effect on AMPA-induced currents” value with AMPA receptors was “almost ineffective”. The IC50 is 1.08 ± 0.31 µM at GluN1/GluN3A receptors (10 μM glycine) and 1.15 ± 0.34 µM at GluN1/GluN3A receptors (100 μM glycine, pH 7.3, holding potential −60 mV). The remaining activity at 3 µM on GluN1/GluN3A receptors (Flp-In-T-REx-293, read-out: I drug/I control) is 8 ± 2%.
